Results: PubChem BioAssay (NCI)
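48-hour exposure; five concentrations; linearly interpolated endpoints. GI50 = concentration required for 50% inhibition of growth. TGI is the concentration that stops growth completely.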

Columns and labels:
Assay in all cases: DTP human tumour cell line panel, 48 h
SK-OV-3 ovarian = test system: SK-OV-3 ovarian
SN12C renal = test system: SN12C renal
NCI/ADR-RES ovarian = test system: NCI/ADR-RES ovarian
HL-60(TB) leukemia = test system: HL-60(TB) leukemia
MCF7 breast = test system: MCF7 breast
SF-539 CNS = test system: SF-539 CNS
COLO 205 colon = test system: COLO 205 colon
786-0 renal = test system: 786-0 renal
HOP-92 NSCLC = test system: HOP-92 NSCLC
UACC-62 melanoma = test system: UACC-62 melanoma
MALME-3M melanoma = test system: MALME-3M melanoma
BT-549 breast = test system: BT-549 breast
LOX IMVI melanoma = test system: LOX IMVI melanoma
UACC-257 melanoma = test system: UACC-257 melanoma
CCRF-CEM leukemia = test system: CCRF-CEM leukemia
SW-620 colon = test system: SW-620 colon
IGROV1 ovarian = test system: IGROV1 ovarian
HT29 colon = test system: HT29 colon
SK-MEL-5 melanoma = test system: SK-MEL-5 melanoma
NCI-H23 lung = test system: NCI-H23 lung
ACHN renal = test system: ACHN renal
UO-31 renal = test system: UO-31 renal
MDA-MB-231 breast = test system: MDA-MB-231 breast
HOP-62 NSCLC = test system: HOP-62 NSCLC
TK-10 renal = test system: TK-10 renal
SR leukemia = test system: SR leukemia
PC-3 prostate = test system: PC-3 prostate
CAKI-1 renal = test system: CAKI-1 renal
OVCAR-5 ovarian = test system: OVCAR-5 ovarian
OVCAR-3 ovarian = test system: OVCAR-3 ovarian
NCI-H522 lung = test system: NCI-H522 lung
RXF 393 renal = test system: RXF 393 renal
KM12 colon = test system: KM12 colon
SF-295 CNS = test system: SF-295 CNS
NCI-H226 lung = test system: NCI-H226 lung
HCT-15 colon = test system: HCT-15 colon
SK-MEL-2 melanoma = test system: SK-MEL-2 melanoma
M14 melanoma = test system: M14 melanoma
U251 CNS = test system: U251 CNS
OVCAR-4 ovarian = test system: OVCAR-4 ovarian
HCT-116 colon = test system: HCT-116 colon
SNB-75 CNS = test system: SNB-75 CNS
NCI-H460 lung = test system: NCI-H460 lung
OVCAR-8 ovarian = test system: OVCAR-8 ovarian
MDA-MB-435 = test system: MDA-MB-435
K-562 leukemia = test system: K-562 leukemia
MOLT-4 leukemia = test system: MOLT-4 leukemia
DU-145 prostate = test system: DU-145 prostate
HS 578T breast = test system: HS 578T breast
RPMI-8226 leukemia = test system: RPMI-8226 leukemia
SK-MEL-28 melanoma = test system: SK-MEL-28 melanoma
SF-268 CNS = test system: SF-268 CNS
SNB-19 CNS = test system: SNB-19 CNS
A498 renal = test system: A498 renal
T-47D breast = test system: T-47D breast
HCC-2998 colon = test system: HCC-2998 colon
A549 NSCLC = test system: A549 NSCLC

O=c1c2sc3ccccc3c2nnn1-c1ccc(F)c(Cl)c1
GI50 (SK-OV-3 ovarian): 3.17 µM | TGI (SK-OV-3 ovarian): 9.92 µM | GI50 (SN12C renal): 15.1 µM | TGI (SN12C renal): > 100 µM | GI50 (NCI/ADR-RES ovarian): 17.1 µM | TGI (NCI/ADR-RES ovarian): > 100 µM | GI50 (HL-60(TB) leukemia): 56.6 µM | TGI (HL-60(TB) leukemia): > 100 µM | GI50 (MCF7 breast): 20.4 µM | TGI (MCF7 breast): > 100 µM | GI50 (SF-539 CNS): 11.9 µM | TGI (SF-539 CNS): 27.7 µM | GI50 (COLO 205 colon): 3.93 µM | TGI (COLO 205 colon): > 100 µM | GI50 (786-0 renal): 3.62 µM | TGI (786-0 renal): 11.5 µM | GI50 (HOP-92 NSCLC): 1.25 µM | TGI (HOP-92 NSCLC): 4.89 µM | GI50 (UACC-62 melanoma): 11.7 µM | TGI (UACC-62 melanoma): 38.8 µM | GI50 (MALME-3M melanoma): 8.17 µM | TGI (MALME-3M melanoma): 54.6 µM | GI50 (BT-549 breast): 31.7 µM | TGI (BT-549 breast): 95 µM | GI50 (LOX IMVI melanoma): 3.9 µM | TGI (LOX IMVI melanoma): > 100 µM | GI50 (UACC-257 melanoma): 29.4 µM | TGI (UACC-257 melanoma): > 100 µM | GI50 (CCRF-CEM leukemia): 4.03 µM | TGI (CCRF-CEM leukemia): 16.9 µM | GI50 (SW-620 colon): > 100 µM | TGI (SW-620 colon): > 100 µM | GI50 (IGROV1 ovarian): 3.66 µM | TGI (IGROV1 ovarian): 38 µM | GI50 (HT29 colon): > 100 µM | TGI (HT29 colon): > 100 µM | GI50 (SK-MEL-5 melanoma): 39.3 µM | TGI (SK-MEL-5 melanoma): > 100 µM | GI50 (NCI-H23 lung): 15.7 µM | TGI (NCI-H23 lung): 62.8 µM | GI50 (ACHN renal): 3.88 µM | TGI (ACHN renal): 27.2 µM | GI50 (UO-31 renal): 2.13 µM | TGI (UO-31 renal): > 100 µM | GI50 (MDA-MB-231 breast): 3.99 µM | TGI (MDA-MB-231 breast): 26.1 µM | GI50 (HOP-62 NSCLC): 2.17 µM | TGI (HOP-62 NSCLC): 5.66 µM | GI50 (TK-10 renal): 4.63 µM | TGI (TK-10 renal): 13.8 µM | GI50 (SR leukemia): 7.99 µM | TGI (SR leukemia): 22.7 µM | GI50 (PC-3 prostate): 7.76 µM | TGI (PC-3 prostate): > 100 µM | GI50 (CAKI-1 renal): 3.65 µM | TGI (CAKI-1 renal): > 100 µM | GI50 (OVCAR-5 ovarian): 20.8 µM | TGI (OVCAR-5 ovarian): > 100 µM | GI50 (OVCAR-3 ovarian): 21.2 µM | TGI (OVCAR-3 ovarian): > 100 µM | GI50 (NCI-H522 lung): 20.2 µM | TGI (NCI-H522 lung): > 100 µM | GI50 (RXF 393 renal): 5.21 µM | TGI (RXF 393 renal): 22.4 µM | GI50 (KM12 colon): 17.4 µM | TGI (KM12 colon): > 100 µM | GI50 (SF-295 CNS): 2.56 µM | TGI (SF-295 CNS): 8.59 µM | GI50 (NCI-H226 lung): 8.87 µM | TGI (NCI-H226 lung): > 100 µM | GI50 (HCT-15 colon): 20.3 µM | TGI (HCT-15 colon): > 100 µM | GI50 (SK-MEL-2 melanoma): 14.8 µM | TGI (SK-MEL-2 melanoma): 35 µM | GI50 (M14 melanoma): 30 µM | TGI (M14 melanoma): > 100 µM | GI50 (U251 CNS): 4.76 µM | TGI (U251 CNS): 24.9 µM | GI50 (OVCAR-4 ovarian): 3.39 µM | TGI (OVCAR-4 ovarian): > 100 µM | GI50 (HCT-116 colon): 3.6 µM | TGI (HCT-116 colon): 20.9 µM | GI50 (SNB-75 CNS): 2.01 µM | TGI (SNB-75 CNS): 8.89 µM | GI50 (NCI-H460 lung): 4.2 µM | TGI (NCI-H460 lung): > 100 µM | GI50 (OVCAR-8 ovarian): 5.16 µM | TGI (OVCAR-8 ovarian): > 100 µM | GI50 (MDA-MB-435): > 100 µM | TGI (MDA-MB-435): > 100 µM | GI50 (K-562 leukemia): 14.8 µM | TGI (K-562 leukemia): 39.4 µM | GI50 (MOLT-4 leukemia): 14.9 µM | TGI (MOLT-4 leukemia): 32.5 µM | GI50 (DU-145 prostate): 15.6 µM | TGI (DU-145 prostate): > 100 µM | GI50 (HS 578T breast): 2.68 µM | TGI (HS 578T breast): 10.4 µM | GI50 (RPMI-8226 leukemia): 13.4 µM | TGI (RPMI-8226 leukemia): 41.4 µM | GI50 (SK-MEL-28 melanoma): > 100 µM | TGI (SK-MEL-28 melanoma): > 100 µM | GI50 (SF-268 CNS): 15 µM | TGI (SF-268 CNS): 55 µM | GI50 (SNB-19 CNS): 4.16 µM | TGI (SNB-19 CNS): 34.4 µM | GI50 (A498 renal): 5.82 µM | TGI (A498 renal): 24.2 µM | GI50 (T-47D breast): 8.12 µM | TGI (T-47D breast): > 100 µM | GI50 (HCC-2998 colon): 24.8 µM | TGI (HCC-2998 colon): > 100 µM | GI50 (A549 NSCLC): 3.75 µM | TGI (A549 NSCLC): > 100 µM
